# Values joined by “and” are separate entries in the source; they are usually repeats but may differ in a detail not shown here. Identical values can stand only once.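 Where inhibition never reached the appropriate level, the endpoint shown equals the highest concentration tested. Otherwise, values were interpolated linearly from a five-concentration, 48-hour dose response in 96-well plates. Abbreviation: GI50, concentration required for 50% inhibition of growth. TGI denotes the concentration required for complete inhibition of growth.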
# Columns and labels:
# Assay in all cases: NCI-60 cell line screen, 48 h
# SN12C renal = test system: SN12C renal
# NCI-H226 lung = test system: NCI-H226 lung
# OVCAR-3 ovarian = test system: OVCAR-3 ovarian
# UACC-257 melanoma = test system: UACC-257 melanoma
# OVCAR-4 ovarian = test system: OVCAR-4 ovarian
# M14 melanoma = test system: M14 melanoma
# SK-MEL-2 melanoma = test system: SK-MEL-2 melanoma
# HCC-2998 colon = test system: HCC-2998 colon
# UACC-62 melanoma = test system: UACC-62 melanoma
# K-562 leukemia = test system: K-562 leukemia
Compound,GI50 (SN12C renal),TGI (SN12C renal),GI50 (NCI-H226 lung),TGI (NCI-H226 lung),GI50 (OVCAR-3 ovarian) [µM],TGI (OVCAR-3 ovarian),GI50 (UACC-257 melanoma),TGI (UACC-257 melanoma),GI50 (OVCAR-4 ovarian),TGI (OVCAR-4 ovarian),GI50 (M14 melanoma),TGI (M14 melanoma),GI50 (SK-MEL-2 melanoma) [µM],TGI (SK-MEL-2 melanoma),GI50 (HCC-2998 colon),TGI (HCC-2998 colon),GI50 (UACC-62 melanoma) [µM],TGI (UACC-62 melanoma),TGI (K-562 leukemia),GI50 (K-562 leukemia) [µM]
COc1ccc(Nc2ccnc(NCCCNc3ccnc4cc(Cl)ccc34)n2)cc1,1.59 µM,8.94 µM,1.92 µM,4.55 µM,1.56,3.24 µM,1.33 µM,2.75 µM,1.35 µM,6.22 µM,0.196 µM,0.461 µM,1.61,3.21 µM,1.01 µM,2.61 µM,1.4,2.96 µM,,
O=C1c2ccccc2C(=O)c2nc(-c3ccccc3)c(-c3ccccc3)nc21,,> 100 µM,,> 31.6 µM,,13.2 µM,,,,> 66.9 µM,,> 100 µM,,> 100 µM,,> 100 µM,,> 100 µM,> 100 µM,
COC(=O)C1C(=O)O[C@@H](c2ccc(OC)cc2OC)C1C(=O)OC (some centres undefined),,> 100 µM,,> 100 µM,,> 100 µM,,> 100 µM,,> 100 µM,,> 100 µM,,,,> 100 µM,,> 100 µM,> 100 µM,
O=C(CC(=O)C(F)(F)F)c1csc2ccccc12,,75.4 µM,,,,> 100 µM,,> 100 µM,,,,68.9 µM,,53.7 µM,,> 100 µM,,> 100 µM,> 100 µM,
O=C(C=Nc1ccccc1C(=O)[O-])c1cccs1.O=C(C=Nc1ccccc1C(=O)[O-])c1cccs1.[Cu+2],,> 100 µM,,,,> 100 µM,,> 100 µM,,,,> 100 µM,,> 100 µM,,> 100 µM,,> 100 µM,> 100 µM,
CC(=O)Nc1ccc(/C=C/C(=O)c2sc(C(N)=S)nc2C)cc1,,> 100 µM,,> 100 µM,,> 100 µM,,> 100 µM,,,,,,> 100 µM,,> 100 µM,,> 100 µM,> 100 µM,
O=C1C=CC2(C=C1)CCN=c1c(O)c3c(c(O)c12)=NC=N3,14.5 µM and > 100 µM,29.4 µM and > 100 µM,19 µM and > 100 µM,38.4 µM and > 100 µM,,25 µM and > 100 µM,,21.6 µM and > 100 µM,15.9 µM and > 100 µM,29.7 µM and > 100 µM,11.3 µM and > 100 µM,23.7 µM and > 100 µM,,16 µM and > 100 µM,18.5 µM and > 100 µM,32.6 µM and > 100 µM,,,42.6 µM and > 100 µM,
CC1OC(O)CC(OC(=O)c2ccccc2)C1OC(=O)c1ccccc1 (centres undefined),,32.3 µM,,,,33.4 µM,,29.4 µM,,28.8 µM,,30.3 µM,,,,> 100 µM,,31.5 µM,57.5 µM,
CC[C@H](C)C(=O)O[C@H]1CCC=C2C=C[C@H](C)C(CCC3C[C@@H](O)CC(=O)O3)[C@H]21 (some centres undefined),3.5 µM,> 100 µM,6.2 µM,46 µM,,> 100 µM,> 100 µM,> 100 µM,22.7 µM,> 100 µM,,> 100 µM,6.98,> 100 µM,33 µM,> 100 µM,4.75,61.9 µM,,
CC1(C)C2CCC13C(=O)C1OC3(C2)C2C(=O)c3c(O)ccc(O)c3C(=O)C12 (centres undefined),16.3 µM,35.7 µM,> 79 µM,> 100 µM,,,32.7 µM,> 66.7 µM,> 100 µM,> 100 µM,14.1 µM,29.2 µM,26.1,> 100 µM,42.9 µM,> 100 µM,97.1,> 100 µM,> 59.1 µM,21.2
CCN(CC)CCOc1cc2c(C(=O)OC)c(C)oc2cc1C(C)=O,1.64 µM,6.54 µM,11.4 µM,25.2 µM,45.1,> 100 µM,13 µM,31.7 µM,,,4.53 µM,16.9 µM,33.3,> 100 µM,15.7 µM,29.3 µM,9.4,21.5 µM,29.2 µM,4.7
COC(=O)C1=CC2OC1(C)C1(CC1)C2=O (centres undefined),,31 µM,,43.5 µM,,31.2 µM,,31 µM,,24 µM,,29.1 µM,,,,34.2 µM,,,41.9 µM,
CCCC(=O)NNc1[nH]c(-c2ccc(OC)cc2)cc1C(=O)OCC,17.1 µM,30.9 µM,16.1 µM,30.1 µM,15.5,31.1 µM,1.6 µM,14.8 µM,17.1 µM,32.3 µM,20.4 µM,39.7 µM,4.59,8.48 µM,,,16.4,30 µM,> 100 µM,9.61
COC(=O)C(=O)C(C(=O)C(=O)Nc1cc([N+](=O)[O-])ccc1[N+](=O)[O-])c1nc2ccc(C(=O)c3ccccc3)cc2[nH]c1=O (centres undefined),,> 100 µM,,89 µM,,> 100 µM,,> 100 µM,,> 100 µM,,98.8 µM,,> 100 µM,,> 100 µM,,,91.3 µM,
Cc1c(CCl)c(=O)oc2c(C)c3occ(CCl)c(=O)c3cc12,,56.4 µM,,48.7 µM,,> 100 µM,,> 100 µM,,,,37.5 µM,,> 100 µM,,> 100 µM,,30.3 µM,23.6 µM,
CCC(=C(c1ccc(OCc2ccccc2)cc1)c1ccc(OCc2ccccc2)cc1)c1ccc(OC)cc1,,> 100 µM,,> 100 µM,,> 100 µM,,,,> 100 µM,,> 100 µM,,> 100 µM,,> 100 µM,,> 100 µM,> 100 µM,
CCNc1nc(N2CC(=O)Nc3cc(OC)ccc32)c2ccccc2n1,0.00137 µM,> 100 µM,,> 100 µM,0.000352,,,,,> 100 µM,0.000363 µM,> 100 µM,,42.7 µM,0.000614 µM,,0.00054,> 100 µM,> 100 µM,0.000351
COc1ccc2c(c1)[n+]([O-])c(-c1nc3ccccc3s1)c(N)[n+]2[O-],,> 100 µM,,> 100 µM,,> 100 µM,,> 100 µM,,> 100 µM,,> 100 µM,,> 100 µM,,,,,> 100 µM,
CN(CCC(=O)O)S(=O)(=O)c1ccccc1,,> 100 µM,,> 100 µM,,> 100 µM,,> 100 µM,,> 100 µM,,> 100 µM,,> 100 µM,,,,> 100 µM,> 100 µM,
CC1C(=O)N(C)C2(CO)C(=O)O[C@H](C)C12O (some centres undefined),,,,,,> 100 µM,,,,> 100 µM,,> 100 µM,,> 100 µM,,> 100 µM,,> 100 µM,> 100 µM,
Clc1ccc(CO/N=C(\Cn2ccnc2)c2ccc(Cl)cc2Cl)c(Cl)c1,1.44 µM,2.93 µM,1.42 µM,3.01 µM,1.66,3.12 µM,1.68 µM,3.18 µM,1.36 µM,2.67 µM,1.85 µM,3.71 µM,2.06,3.92 µM,1.73 µM,3.42 µM,1.24,2.67 µM,,
C/C(=C\c1ccn(-c2ccc(N)cc2)n1)[C@@H]1C[C@@H]2O[C@]2(C)CCC[C@H](C)[C@H](O)[C@@H](C)C(=O)C(C)(C)[C@@H](O)CC(=O)O1,0.201 µM,> 50 µM,> 50 µM,> 50 µM,0.0175,1.6 µM,,,0.401 µM,> 50 µM,,,0.0758,> 50 µM,0.0382 µM,> 50 µM,0.157,> 50 µM,> 50 µM,0.0248
CSC(=S)NNC(=O)c1ccncc1,,41.4 µM,,52.6 µM,,51.3 µM,,56.7 µM,,,,42.3 µM,,33.9 µM,,38.1 µM,,31.1 µM,38.5 µM,
O=C(NCC#CCO)C(F)(F)F,,> 100 µM,,> 100 µM,,,,> 100 µM,,> 100 µM,,> 100 µM,,> 100 µM,,> 100 µM,,> 100 µM,,
COc1cnc2c(c1)C(=O)c1c-2n(CCCN2CCN(C)CC2)c(=O)c2cc(Cl)ccc12,10.2 µM,58.2 µM,12.3 µM,36.2 µM,15.1,29.3 µM,4.04 µM,22.3 µM,2.19 µM,18.1 µM,1.71 µM,3.61 µM,5.29,23.2 µM,11.3 µM,26.8 µM,,,3.51 µM,1.19
[N-]=[N+]=CC(=O)OCC(N)C(=O)O (centres undefined),0.749 µM,> 100 µM,3.53 µM,> 100 µM,3.73,> 100 µM,3.61 µM,> 100 µM,4.29 µM,> 100 µM,0.809 µM,> 100 µM,15.9,> 100 µM,0.556 µM,> 100 µM,2.06,> 100 µM,,
Nc1ccn([C@@H]2C=C(CO)[C@@H](O)[C@H]2O)c(=O)n1,,,0.501 µM,493 µM,,500 µM and > 625 µM,2.97 µM and 1.12 µM,470 µM,,,0.329 µM,,,346 µM and 301 µM,,,,135 µM and 224 µM,335 µM,0.0189
Cc1cc(C)n(-c2c(O)ccc(O)c2-n2nc(C)cc2C)n1,,> 100 µM,,,,> 100 µM,,,,> 100 µM,,> 100 µM,,> 100 µM,,> 100 µM,,> 100 µM,> 100 µM,
